Laboratory results from ChEMBL document CHEMBL1130475 (Bioorg Med Chem Lett, 1997).

How the values were obtained:
[1] = molecular target: FK506 binding protein 12 (Gallus gallus, UniProt Q8QGU2); experiment: Inhibition of binding to FKBP12 receptor
[2] = Ability to promote neurite outgrowth against freshly isolated sensory neuronal cultures; type: functional; details: Gallus gallus; read-out: ED50 (the source's name)
[3] = Tested for its ability to inhibit calcineurin phosphatase activity in standard in vitro assay; NI means no inhibition at >10 uM; type: functional
[4] = test system: T-cell; experiment: Tested for its ability to block T-cell proliferation in standard in vitro assay; NI means no inhibition at >10 uM; type: functional, cell-based

Chain of FK506 binding protein 12 (Q8QGU2 whole entry): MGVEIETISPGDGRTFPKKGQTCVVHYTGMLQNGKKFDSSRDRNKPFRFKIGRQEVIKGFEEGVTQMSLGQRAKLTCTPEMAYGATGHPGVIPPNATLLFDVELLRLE

CCC(C)(C)C(=O)C(=O)N1CCCCC1C(=O)OC(CCCc1ccccc1)CCc1ccc(OC)cc1 (configuration not stated)
Ki [1]: 15 nM | EC50 [2]: 0.17 nM

CCOC(=O)C1CCCCN1C(=O)C(=O)C(C)(C)CC (configuration not stated)
Ki [1]: 1300 nM | EC50 [2]: 5000 nM

CCC(C)(C)C(=O)C(=O)N1CCCCC1C(=O)OC(CCc1ccccc1)CCc1ccccc1 (configuration not stated)
EC50 [2]: 0.016 nM

CCOC(=O)C1CCCCN1C(=O)C(=O)OC (configuration not stated)
Ki [1]: > 10000 nM | EC50 [2]: > 10000 nM

COc1ccc(CCCCOC(=O)C2CCCCN2C(=O)C(=O)C(C)(C)C)cc1 (configuration not stated)
Ki [1]: 24 nM | EC50 [2]: 0.002 nM

CCC(C)(C)C(=O)C(=O)N1CCCCC1C(=O)OCCC(c1ccccc1)c1ccccc1 (configuration not stated)
Ki [1]: 8.3 nM | EC50 [2]: 0.029 nM

CCC(C)(C)C(=O)C(=O)N1CCCCC1C(=O)OCCCc1cc(OC)c(OC)c(OC)c1 (configuration not stated)
Activity [3]: No inhibition | Ki [1]: 25 nM | Activity [4]: No inhibition | EC50 [2]: 80 nM

CC(C)(C)C(=O)C(=O)N1CCCCC1C(=O)OC(CCCc1ccccc1)CCCc1ccccc1 (configuration not stated)
EC50 [2]: 0.085 nM

O=C(C(=O)N1CCCCC1C(=O)OC(CCCc1ccccc1)CCCc1ccccc1)c1ccccc1 (configuration not stated)
Ki [1]: 3 nM | EC50 [2]: 0.15 nM

CCC(C)(C)C(=O)C(=O)N1CCCCC1C(=O)OCCCCc1ccc(OC)cc1 (configuration not stated)
Ki [1]: 60 nM | EC50 [2]: 43 nM

CC(C)(C)C(=O)C(=O)N1CCCCC1C(=O)OCCCc1ccccc1 (configuration not stated)
EC50 [2]: 0.085 nM

CCC(C)(C)C(=O)C(=O)N1CCCCC1C(=O)OC(CCCc1ccccc1)CCCc1ccccc1 (configuration not stated)
EC50 [2]: 5 nM

COc1cc(C(=O)C(=O)N2CCCCC2C(=O)OC(CCCc2ccccc2)CCCc2ccccc2)cc(OC)c1OC (configuration not stated)
EC50 [2]: 0.61 nM

CCC(C)(C)C(=O)C(=O)N1CCCCC1C(=O)OCCCc1ccccc1 (configuration not stated)
Activity [3]: No inhibition | Ki [1]: 250 nM | Activity [4]: No inhibition | EC50 [2]: 300 nM
